Laboratory results as given in US8445505B2 (IRM LLC, priority 2008, dated 2013).
pIC50: −log10 of the molar value.

Target: IGF1R Ba/F3 (Homo sapiens, UniProt P08069)
Experiment: Ba/F3 Cell Viability Inhibition Assay (Tel-TK transformed Ba/F3 lines)
Assay type: cell-based, murine
Set-up: the printed alternative
Details: Tel-TK (IGF1R) transformed Ba/F3 cells, 48 hours incubation, cell viability (Britelite luminescence)
Source text: Ba/F3 is a murine IL-3-dependent pro-B lymphoma cell line. Parental Ba/F3 cells are used to generate a panel of sublines whose proliferation and survival is rendered IL-3-independent by stable transduction with individual tyrosine kinases activated by fusion with the amino-terminal portion of TEL (amino acid 1-375) or BCR. In order to generate Ba/F3 cell lines transformed by Tel-Tyrosine Kinase (TK) fusions, parental Ba/F3 cells are infected with a retrovirus harboring each TEL-fusion kinase and subjected to puromycin selection and IL-3 withdrawal to obtain IL-3-independent, transformed Ba/F3 cells.
Each transformed Ba/F3 cells are cultured in RPMI-1640 media (Gibco Cat #11875093, Carlsbad, Calif.) supplemented with 10% FBS (Hyclone Cat #SV30014.03, Logan, Utah), 4.5 g/L glucose (Sigma #G5400, St.Louis, Mo.), 1.5 g/L sodium bicarbonate (Biowhittaker #17-613E, Walkersville, Md.) and Pen/Strep (Gibco #10378-016, Carlsbad, Calif.). Cells are splitted twice weekly.
The potency of test compounds against various Tel-TK transformed Ba/F3 lines is determined as follows. Exponentially growing BaF3 Tel-TK cells are diluted in fresh medium to 75,000 cells/mL and seeded into 384-well plates (3750 cells/well) at 50 μL/well using a gill liquid dispenser (BioTek, Winooski, Vt., USA). Duplicate plates are run for each cell line. Test and control compounds are serially diluted with DMSO and arrayed in a polypropylene 384-well plate. 50 nL of compound is transferred into the assay plates using a pin-transfer device, and the plates are incubated at 37° C. (5% CO2) for 48 hours. 25 μL Britelite (Perkin Elmer) is added and luminescence is quantified using Analyst GT (Molecular Devices). Custom curve-fitting software is used to produce a logistic fit of percent cell viability as a function of the logarithm of inhibitor concentration. The IC50 is interpolated as the concentration of compound needed to reduce cell viability to 50% of a DMSO control. Parental Ba/F3 cells that are maintained and cultured in presence of IL-3 (1 ng/ml in final) are diluted in fresh medium containing IL-3 (1 ng/ml in final) to 75,000 cells/mL following the same procedure as described above.

Chain of IGF1R Ba/F3 (P08069 999-1274 limits assumed): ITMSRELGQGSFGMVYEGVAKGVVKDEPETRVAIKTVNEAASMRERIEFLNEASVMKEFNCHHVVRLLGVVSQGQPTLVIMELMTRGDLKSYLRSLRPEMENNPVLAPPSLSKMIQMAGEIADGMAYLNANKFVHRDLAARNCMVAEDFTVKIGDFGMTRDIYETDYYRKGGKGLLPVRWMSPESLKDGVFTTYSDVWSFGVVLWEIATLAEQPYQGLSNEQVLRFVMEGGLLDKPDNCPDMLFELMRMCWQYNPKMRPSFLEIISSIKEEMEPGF

Row | SMILES | pIC50
1 | Cc1cc(Nc2nc(Nc3cc(C)c([C@H]4CC[C@@H](N5C[C@H](O)[C@@H](O)C5)CC4)cc3F)ncc2C(F)(F)F)n[nH]1 [Compound 68, (3S,4S)-1-((cis)-4-(5-fluoro-2-methyl-4-(4-(5-methyl-1H-pyrazol-3-ylamino)-5-(trifluoromethyl)pyrimidin-2-ylamino)phenyl)cyclohexyl)pyrrolidine-3,4-diol] | 6.92
2 | CNC(=O)c1ccc(-c2cc(C)c(Nc3ncc(Cl)c(Nc4cc(C)[nH]n4)n3)cc2C)cn1 [Compound 14, 5-(4-(5-chloro-4-(5-methyl-1H-pyrazol-3-ylamino)pyrimidin-2-ylamino)-2,5-dimethylphenyl)-N-methylpicolinamide] | 7.82
3 | Cc1cc(Nc2nc(Nc3cc(C)c([C@H]4CC[C@@H](N5CCOCC5)CC4)cc3C)ncc2Cl)n[nH]1 [Compound 38, 5-chloro-N^2-(2,5-dimethyl-4-(4-cis-morpholinocyclohexyl)phenyl)-N^4-(5-methyl-1H-pyrazol-3-yl)pyrimidine-2,4-diamine] | 8.05
4 | Cc1cc(Nc2nc(Nc3cc(C)c(CN4CCOCC4)cc3C)ncc2Cl)n[nH]1 [Compound 39, 5-Chloro-N^2-(2,5-dimethyl-4-(morpholinomethyl)phenyl)-N^4-(5-methyl-1H-pyrazol-3-yl)pyrimidine-2,4-diamine] | 6.82
5 | Cc1cc(Nc2nc(Nc3cc(C)c([C@H]4CC[C@H](N5C[C@@H](O)[C@H](O)C5)CC4)cc3F)ncc2C(F)(F)F)n[nH]1 [Compound 70, (3R,4R)-1-((trans)-4-(5-fluoro-2-methyl-4-(4-(5-methyl-1H-pyrazol-3-ylamino)-5-(trifluoromethyl)pyrimidin-2-ylamino)phenyl)cyclohexyl)pyrrolidine-3,4-diol] | 6.61
6 | Cc1cc(Nc2nc(Nc3cc(C)c(C4CCC(=O)CC4)cc3C)ncc2C(F)(F)F)n[nH]1 [Compound 40, 4-(2,5-dimethyl-4-(4-(5-methyl-1H-pyrazol-3-ylamino)-5-(trifluoromethyl)pyrimidin-2-ylamino)phenyl)cyclohexanone] | 7.31
7 | Cc1cc(Nc2nc(Nc3cc(C)c([C@H]4CC[C@@H](O)CC4)cc3F)ncc2Cl)n[nH]1 [Compound 73, Cis-4-(4-(5-chloro-4-(5-methyl-1H-pyrazol-3-ylamino)pyrimidin-2-ylamino)-5-fluoro-2-methylphenyl)cyclohexanol] | 7.49
8 | Cc1cc(Nc2nc(Nc3cc(C)c([C@H]4CC[C@H](N5CCCCC5)CC4)cc3C)ncc2C(F)(F)F)n[nH]1 [Compound 61, N2-(2,5-dimethyl-4-((trans)-4-(piperidin-1-yl)cyclohexyl)phenyl)-N4-(5-methyl-1H-pyrazol-3-yl)-5-(trifluoromethyl)pyrimidine-2,4-diamine] | 8.52
9 | Cc1cc(Nc2nc(Nc3cc4c(cc3F)CN(C3CCNCC3)C4=O)ncc2Cl)n[nH]1 [Compound 79, 6-(5-chloro-4-(5-methyl-1H-pyrazol-3-ylamino)pyrimidin-2-ylamino)-5-fluoro-2-(piperidin-4-yl)isoindolin-1-one] | 5.19
10 | Cc1cc(Nc2nc(Nc3cc(C)c([C@H]4CC[C@H](N5CCCCC5)CC4)cc3F)ncc2C(F)(F)F)n[nH]1 [Compound 63, N^2-(2-fluoro-5-methyl-4-(trans-4-(piperidin-1-yl)cyclohexyl)phenyl)-N^4-(5-methyl-1H-pyrazol-3-yl)-5-(trifluoromethyl)pyrimidine-2,4-diamine] | 7.80
11 | Cc1cc(Nc2nc(Nc3cc(C)c(C4CCN(CC(N)=O)CC4)cn3)ncc2Cl)n[nH]1 [Compound 84, 2-(4-(6-(5-Chloro-4-(5-methyl-1H-pyrazol-3-ylamino)pyrimidin-2-ylamino)-4-methylpyridin-3-yl)piperidin-1-yl)acetamide] | 6.28
12 | CCN(CC)[C@H]1CC[C@H](c2cc(F)c(Nc3ncc(Cl)c(Nc4cc(C)[nH]n4)n3)cc2C)CC1 [Compound 57, 5-chloro-N2-(4-((trans)-4-(diethylamino)cyclohexyl)-2-fluoro-5-methylphenyl)-N4-(5-methyl-1H-pyrazol-3-yl)pyrimidine-2,4-diamine] | 7.51
13 | Cc1cc(Nc2nc(Nc3cc4c(cc3F)CNC4=O)ncc2Cl)n[nH]1 [Compound 82, 6-(5-chloro-4-(5-methyl-1H-pyrazol-3-ylamino)pyrimidin-2-ylamino)-5-fluoroisoindolin-1-one] | 5.58
14 | Cc1cc(Nc2nc(Nc3cc(C)c([C@H]4CC[C@H](NC5CC5)CC4)cc3C)ncc2Cl)n[nH]1 [Compound 46, Trans-5-chloro-N2-(4-(4-(cyclopropylamino)cyclohexyl)-2,5-dimethylphenyl)-N4-(5-methyl-1H-pyrazol-3-yl)pyrimidine-2,4-diamine] | 7.80
15 | Cc1cc(Nc2nc(Nc3ccc(C4CCN(CC(N)=O)CC4)c(C)n3)ncc2Cl)n[nH]1 [Compound 76, 2-(4-(6-(5-chloro-4-(5-methyl-1H-pyrazol-3-ylamino)pyrimidin-2-ylamino)-2-methylpyridin-3-yl)piperidin-1-yl)acetamide] | 5.75
16 | Cc1ccc(-c2cc(C)c(Nc3ncc(Cl)c(Nc4cc(C)[nH]n4)n3)cc2C)cn1 [Compound 16, 5-chloro-N2-(2,5-dimethyl-4-(6-methylpyridin-3-yl)phenyl)-N4-(5-methyl-1H-pyrazol-3-yl)pyrimidine-2,4-diamine] | 7.52
17 | Cc1cc(Nc2nc(Nc3cc(C)c([C@H]4CC[C@@H](N5CCCCC5)CC4)cc3C)ncc2Cl)n[nH]1 [Compound 43, Cis-5-chloro-N2-(2,5-dimethyl-4-(4-(pipcridin-1-yl)cyclohexyl)phenyl)-N4-(5-methyl-1H-pyrazol-3-yl)pyrimidine-2,4-diamine] | 8.10
18 | Cc1cc(Nc2nc(Nc3cc(C)c([C@H]4CC[C@H](N5C[C@H](O)[C@@H](O)C5)CC4)cc3F)ncc2C(F)(F)F)n[nH]1 [Compound 69, (3S,4S)-1-((trans)-4-(5-fluoro-2-methyl-4-(4-(5-methyl-1H-pyrazol-3-ylamino)-5-(trifluoromethyl)pyrimidin-2-ylamino)phenyl)cyclohexyl)pyrrolidine-3,4-diol] | 6.52
19 | Cc1cc(Nc2nc(Nc3cc(C)c([C@H]4CC[C@@H](N5C[C@@H](O)[C@H](O)C5)CC4)cc3F)ncc2C(F)(F)F)n[nH]1 [Compound 71, (3R,4R)-1-((cis)-4-(5-fluoro-2-methyl-4-(4-(5-methyl-1H-pyrazol-3-ylamino)-5-(trifluoromethyl)pyrimidin-2-ylamino)phenyl)cyclohexyl)pyrrolidine-3,4-diol] | 6.96
20 | Cc1cc(Nc2nc(Nc3cc(C)c(-c4ccc5c(c4)CCN(C)C5)cc3C)ncc2Cl)n[nH]1 [Compound 75, 5-chloro-N2-(2,5-dimethyl-4-(2-methyl-1,2,3,4-tetrahydroisoquinolin-6-yl)phenyl)-N4-(5-methyl-1H-pyrazol-3-yl)pyrimidine-2,4-diamine] | 7.27
21 | Cc1cc(Nc2nc(Nc3cc(C)c([C@H]4CC[C@H](O)CC4)cc3C)ncc2Cl)n[nH]1 [Compound 45, trans-4-(4-(5-chloro-4-(5-rnethyl-1H-pyrazol-3-ylamino)pyrimidin-2-ylamino)-2,5-dimethylphenyl)cyclohexanol] | 7.85
22 | C/C(=N\OCCN(C)C)c1cc(C)c(Nc2ncc(Cl)c(Nc3cc(C)[nH]n3)n2)cc1C [Compound 35, 1-(4-(5-chloro-4-(5-methyl-1H-pyrazol-3-ylamino)pyrimidin-2-ylamino)-2,5-dimethylphenyl)ethanone O-2-(dimethylamino)ethyl oxime] | 6.92
23 | CO/N=C(\C)c1cc(C)c(Nc2ncc(Cl)c(Nc3cc(C)[nH]n3)n2)cc1C [Compound 34, 1-(4-(5-chloro-4-(5-methyl-1H-pyrazol-3-ylamino)pyrimidin-2-ylamino)-2,5-dimethylphenyl)ethanone O-methyl oxime] | 6.57
24 | Cc1cc(Nc2nc(Nc3cc(C)c([C@H]4CC[C@@H](NC5CC5)CC4)cc3C)ncc2Cl)n[nH]1 [Compound 47, Cis-5-chloro-N2-(4-(4-(cyclopropylamino)cyclohexyl)-2,5-dimethylphenyl)-N4-(5-methyl-1H-pyrazol-3-yl)pyrimidine-2,4-diamine] | 7.77
25 | Cc1cc(Nc2nc(Nc3cc(C)c([C@H]4CC[C@H](N5CC[C@H](O)C5)CC4)cc3F)ncc2Cl)n[nH]1 [Compound 55, (S)-1-((Trans)-4-(4-(5-chloro-4-(5-methyl-1H-pyrazol-3-ylamino)pyrimidin-2-ylamino)-5-fluoro-2-methylphenyl)cyclohexyl)pyrrolidin-3-ol] | 7.49
